Results reported in patent publication US20040013649A1, “Cancer vaccines and methods of using the same” (Inex Pharmaceuticals Corporation, priority 2002, published 2004).
“Also recorded” adds a separate entry of the source. [5mC] = 5-methylcytosine

Columns and labels:
B16 cell target = assay: CTL response to B16 cell target after multiple epitope immunization; format: in vivo, C57BL/6 mice; details: encapsulated PS-ODN 1m (POPC:Chol:DODMA:PEG-DMG) with TRP2 and Gp100 peptides or B16 lysate; 3 injections
Description: Targeting multiple antigens and MHC alleles might be achieved by using multiple recombinant antigen mixtures of synthetic peptide epitopes. To improve the immune response against these multi-epitope antigens several adjuvants are under assay. This experiment employs encapsulated PS-ODN 1 m using POPC:Chol:DODMA:PEG-DMG (25:45:20:10 molar ratio) in combination with two murine melanoma antigens TRP2 (H2Kb, […]) and Gp100 (H2Db, […]). C57BL/6 mice were injected 3 times with either each antigen, or both, in the presence of encapsulated PS-ODN 1 m. As positive control we used dendritic cells known to be potent in inducing CTL responses. B16 lysate containing multiple epitopes was also assayed either with ODN1m or DC for the ability to induce multi-epitope immunity. Immune response was assessed by the ability of CD8+ T cells to mediate cytotoxicity against tumor cells in an antigen-specific manner.

dendritic cells = assay: activation of dendritic cells (CD86 co-expression); format: in vivo, ICR mice; details: lipid encapsulated, single i.v. injection 20 mg/kg, versus PBS control = 100%
Description: ICR mice were immunized with a single intravenous injection of encapsulated oligonucleotides at a dose of 20 mg/kg and the control ICR mouse was injected with PBS. […] Each of these markers are specific to dendritic cells though they may represent different cell sub-populations. In each of FIGS. 4 and 5 the control was plotted as equivalent to 100% and the effect of ODN1m for each backbone configuration was plotted as a percentage of that control.
On collection of the samples the cells were first analyzed by flow cytometry for the co-expression of CD86, which indicates cell activation, and the dendritic cell phenotype markers CD11c and DEC205. The percentage of activated dendritic cells was plotted against a PBS control equivalent to 100%. […] Similar results are shown when measuring DEC205 positive dendritic cells in FIG. 5 panels.

[1] = test system: EG.7 Ova expressing tumor cells; assay: prophylactic anti-tumor efficacy, EG7-OVA tumor model, q7d×3; format: in vivo, C57BI/6 mice
Description: Efficacy studies. E.G7-OVA or EL-4 thymoma cell lines were used throughout the study. These cells were cultured in vitro according to established methods. […] Tumor measurements were made by repeated perpendicular measurements of tumor dimensions and using the formula: […]
Anti-tumor efficacy induced by subcutaneous immunization was assessed in C57BI/6 (5 animals per group) in a prophylactic immunization model. Mice were immunized subcutaneously with 3 injections on a q7d×3 dosing regimen on Days 0, 7 and 14 at a dose of 100 μg oligonucleotide and 20 μg of OVA antigen dose. […] Mice were monitored 3 times weekly to assess tumor growth and weight gain. Control mice were injected with one of PBS or HBS and […] of OVA antigen on the same schedule described above. Oligonucleotides were encapsulated in a lipid particle having a lipid composition of one of POPC: CHOL: DODAP:PEGCer14 or DSPC: CHOL: DODAP:PEGCer14 each in a ratio of 25:45:20:10. All comparisons of methylated and unmethylated oligonucleotides were done using like lipid particles. Results from these efficacy experiments are detailed in FIGS. 12-15, 18-21, and 25-28. Day 0 on each of the Figures is the day each animal was challenged with the tumor.

E.G7-OVA = assay: prophylactic efficacy of OVA / OVA257-264 vaccination, E.G7-OVA model; format: in vivo, C57/BL6 mice; details: LNA (encapsulated) forms; FIG. 35
Description: Vaccinations. B6 mice were vaccinated subcutaneously (SC) with […] per injection. Dosing schedules were either q7dx2 or q4dx4 and are indicated in the individual figure legends. CFA mixtures were very viscous and had to be given with a larger gauge syringe. For humoral studies, a prime (day 0) and boost (day 14) strategy was used and blood samples were collected at various times by tail nicking.
Efficacy studies. E.G7-OVA or EL-4 thymoma cell lines were used throughout the study. These cells were cultured in vitro according to established methods. For tumor studies, 2.5×106 E.G7-OVA cells were injected subcutaneously in […] of PBS containing 1% FCS. Tumor measurements were made by repeated perpendicular measurements of tumor dimensions and using the formula: […]
Full-length OVA and the immunodominant cytotoxic T lymphocyte (CTL) peptide epitope (OVA257-264) were used to evaluate cell mediated immune responses and the prophylactic and therapeutic efficacy of OVA vaccination against the E.G7-OVA transfected cell line, using LNA both as an adjuvant and as the basis for a cancer vaccine formulation. LNA formulations for this experiment were prepared using DSPC:Chol:DODAP:PEGCer14 at a ration of 25:45:20:10
The anti-tumor activity of OVA and OVA257-264 were examined against the murine thymoma cell line, E.G7-OVA, implanted subcutaneously (SC) in C57/BL6 mice. […] Given the activity observed with the protein or peptide alone, this dose and schedule represents a useful model to evaluate adjuvants designed to boost the immune response against OVA and/or OVA257-264.
To examine LNA formulations as adjuvants, the impact of three variables were evaluated on vaccination and efficacy in the prophylactic E.G7-OVA model: (1) the activity of free vs. encapsulated ODN 1, (2) phosphodiester (PO) vs phosphorothioate (PS) ODN, and (3) full-length OVA protein vs single-epitope peptide OVA257-264 (FIGS. 30A and B). In this set of studies, free and encapsulated ODN 1 was simply mixed with antigen and administered SC near the nape of the neck. ODN and antigen doses in these studies were […], respectively.

ODN1m: 5′-TAAZGTTGAGGGGCAT-3, SEQ ID NO: 4, Z = methylated cytosine (DNA TAACGTTGAGGGGCAT; DNA, [5mC] at 4, backbone not given here; tested with both phosphodiester and phosphorothioate backbones)
CTL response (B16 cell target): a CTL response was raised against both antigens
CD86 expression on dendritic cells (dendritic cells): induced CD86 expression on CD11c positive dendritic cells; also recorded: more active than the unmethylated counterpart ODN1
reduction in tumor growth ([1]; free ODN, 100 μg ODN + 20 μg OVA s.c. q7d×3, tumor challenge Day 21): approached the rate of the control animal
reduction in tumor growth ([1]; lipid encapsulated ODN, PO backbone, 100 μg ODN + 20 μg OVA s.c. q7d×3): therapeutic efficacy was greatest with the methylated version 32 days after transplantation
reduction in tumor growth ([1]; lipid encapsulated ODN, PS backbone, 100 μg ODN + 20 μg OVA s.c. q7d×3): equal in therapeutic efficacy in comparison to the unmethylated ODN1; also recorded: improved efficacy
percentage of tumor free animals ([1]; lipid encapsulated ODN, FIG. 19A): greater percentage of tumor free animals
number of animals remaining in the study ([1]; lipid encapsulated ODN, FIG. 19B): essentially identical throughout the study
survival rate of mice ([1]; lipid encapsulated ODN, versus unmethylated counterpart): increase in the survival rate
efficacy of ODN sequences (E.G7-OVA): strongest responses
